Data set [1] deals with T1, 5-HT2A receptor (Rattus norvegicus, UniProt P14842). As to the kind of experiment: 5-HT2 Functional Assay: [Ca2+]i Mobilization (FLIPR). The data set is classed as cell-based. Details: endogenous in cells; host or cells: A7r5 rat vascular smooth muscle cells. The conditions noted are these: for EC50: [Ca2+]i mobilization, rat vascular smooth muscle cells A7r5; for Emax: percentage of maximum 5-HT-induced response, A7r5 cells. The protocol: 5-HT2 Functional Assay: [Ca^2+]i; Mobilization
T1 sequence (P14842 whole entry): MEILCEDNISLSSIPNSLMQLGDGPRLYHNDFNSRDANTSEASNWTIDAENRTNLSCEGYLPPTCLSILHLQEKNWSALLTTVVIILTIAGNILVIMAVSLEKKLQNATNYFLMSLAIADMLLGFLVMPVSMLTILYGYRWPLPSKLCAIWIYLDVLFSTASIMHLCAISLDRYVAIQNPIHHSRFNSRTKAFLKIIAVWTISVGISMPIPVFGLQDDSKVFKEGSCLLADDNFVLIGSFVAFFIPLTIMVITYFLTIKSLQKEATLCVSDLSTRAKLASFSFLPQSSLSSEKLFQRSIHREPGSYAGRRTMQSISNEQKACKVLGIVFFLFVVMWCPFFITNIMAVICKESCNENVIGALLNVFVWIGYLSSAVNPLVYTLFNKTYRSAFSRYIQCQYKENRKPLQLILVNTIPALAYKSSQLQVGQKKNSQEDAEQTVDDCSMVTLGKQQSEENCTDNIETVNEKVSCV
The receptor-mediated mobilization on intracellular calcium ([Ca^2+]i) was studied using the Fluorescence Imaging Plate Reader (FLIPR) instrument. Rat vascular smooth muscle cells, A7r5, were grown in a normal media of DMEM/10% FBS and 10 μg/mL gentamycin. Confluent cell monolayers were trypsinized, pelleted, and re-suspended in normal media. Cells were seeded in a 50 μL volume at a density of 20,000 cells/well in a black wall, 96-well tissue culture plate and grown for 2 days.
On the day of the experiment, one vial of FLIPR Calcium Assay Kit dye was re-suspended in 50 mL of a FLIPR buffer consisting of Hank's Balanced Salt Solution (HBSS), 20 mM HEPES, and 2.5 mM probenecid, pH 7.4. Cells were loaded with the calcium-sensitive dye by addition of an equal volume (50 μL) to each well of the 96-well plate and incubated with dye for 1 h at 23° C.
Typically, test compounds were stored at 25 μM in 50% DMSO/50% Ethanol solvent. Compounds were diluted 1:50 in 20% DMSO/20% Ethanol. For “hit” screening, compounds were further diluted 1:10 in FLIPR buffer and tested at a final concentration of 10 μM. For dose-response experiments, compounds were diluted 1:50 in FLIPR buffer and serially diluted 1:10 to give a 5- or 8-point dose-response curve.
The compound plate and cell plate were placed in the FLIPR instrument. At the beginning of an experimental run, a signal test was performed to check the basal fluorescence signal from the dye-loaded cells and the uniformity of the signal across the plate. The basal fluorescence was adjusted between 8000–12000 counts by modifying the exposure time, the camera F-stop, or the laser power. Instrument settings for a typical assay were the following: laser power 0.3–0.6 W, camera F-stop F/2, and exposure time 0.4 sec. An aliquot (25 μL) of the test compound was added to the existing 100 μL dye-loaded cells at a dispensing speed of 50 μL/sec. Fluorescence data were collected in real-time at 1.0 sec intervals for the first 60 secs and at 6.0 sec intervals for an additional 120 secs. Responses were measured as peak fluorescence intensity minus basal and where appropriate were expressed as a percentage of a maximum 5-HT-induced response. When the compounds were tested as antagonists against 10 μM 5-HT, they were incubated with the cells for 15 minutes prior to the addition of 5-HT.

The target in data set [2] is T1, 5-HT2A receptor. As to the kind of experiment: 5-HT2 Receptor Binding Assay ([125I]DOI competition). The conditions noted are these: [125I]DOI binding, post mortem rat or human cerebral cortex homogenates. Here is the method: The procedures described herein in Method 1 can be used to confirm a compound's 5-HT2 binding affinity.
5-HT2 Receptor Binding Assay
Aliquots of post mortem rat or human cerebral cortex homogenates (400 μL) dispersed in 50 mM TrisHCl buffer (pH 7.4) are incubated with [^125I]DOI (80 pM final) in the absence or presence of methiothepin (10 μM final) to define total and non-specific binding, respectively, in a total volume of 0.5 mL. The assay mixture is incubated for 1 hour at 23° C. in polypropylene tubes and the assays terminated by rapid vacuum filtration over Whatman GF/B glass fiber filters previously soaked in 0.3% polyethyleneimine using ice-cold buffer. Test compounds (at different concentrations) are substituted for methiothepin. Filter-bound radioactivity is determined by scintillation spectrometry on a beta counter. The data are analyzed using a non-linear, iterative curve-fitting computer program [Trends Pharmacol. Sci., 16, 413 (1995)] to determine the compound affinity parameter. The concentration of the compound needed to inhibit the [^125I]DOI binding by 50% of the maximum is termed the IC50 or Ki value.

The EC50 is the concentration at which the effect is half-maximal. Higher therefore signals a less potent agent. By Emax is commonly meant the maximal effect, on the per cent scale that the assay sets. As a reminder, the IC50 is the concentration that inhibits the measured activity by half. Turning to `COc1nc2c(ccc3cnn(C[C@H](C)N)c32)o1` [Example 1, (S)-2-(7-Methoxy-1H-pyrazolo[3,4-e]benzoxazol-1-yl)-1-methylethylamine], on 5-HT2A receptor [1], the 50% effective concentration (EC50) turned out to be 0.352 µM and the Emax was 72%. Further, the half-inhibitory concentration (IC50) on 5-HT2A receptor [2] stood at 0.008 µM.

As a reminder, the melting point is the temperature of the solid-liquid transition. Take `COCc1nc2c(ccc3cnn(C[C@H](C)N)c32)o1` [Example 2, (S)-2-[7-(Methoxymethyl)-1H-pyrazolo[3,4-e]benzoxazol-1-yl]-1-methylethylamine]: the melting point lay within 40 to 43 °C. For the same molecule, on 5-HT2A receptor [1], a half-maximal response (EC50) required 0.174 µM and the Emax turned out to be 88%. The half-inhibitory concentration (IC50) at 5-HT2A receptor [2] is 0.006 µM.

On to `C[C@H](N)Cn1ncc2ccc3oc(C(N)=O)nc3c21` [Example 3, 1-[(S)-2-Aminopropyl]-1H-pyrazolo[3,4-e]benzoxazole-7-carboxylic acid amide], for which the melting point lay in the range of 60 to 65 °C. Besides, at 5-HT2A receptor [1], the 50% effective concentration (EC50) turned out to be 0.445 µM and the maximum response (Emax) came to 72%.

In the case of `CNC(=O)c1nc2c(ccc3cnn(C[C@H](C)N)c32)o1` [Example 4, 1-[(S)-2-Aminopropyl]-1H-pyrazolo[3,4-e]benzoxazole-7-carboxylic acid methylamide], at 5-HT2A receptor [1], the concentration for a half-maximal effect (EC50) came out at 0.907 µM and the maximum response (Emax) was 77%. The concentration for half-maximal inhibition (IC50) at 5-HT2A receptor [2] came out at 0.019 µM.

(Values after patent US7129257B1, “Pyrazolo[3,4- e]benzoxazoles for the treatment of glaucoma” (Alcon, Inc., priority 2003, dated 2006).)
